What all share (assay type): cell-based
What all share (conditions): fluorescent calcium assay

The target of one test is T1, TRPML3 (Homo sapiens, UniProt Q8TDD5).
T1 construct: expressed in transfected cells
T1 sequence (Q8TDD5 1-553): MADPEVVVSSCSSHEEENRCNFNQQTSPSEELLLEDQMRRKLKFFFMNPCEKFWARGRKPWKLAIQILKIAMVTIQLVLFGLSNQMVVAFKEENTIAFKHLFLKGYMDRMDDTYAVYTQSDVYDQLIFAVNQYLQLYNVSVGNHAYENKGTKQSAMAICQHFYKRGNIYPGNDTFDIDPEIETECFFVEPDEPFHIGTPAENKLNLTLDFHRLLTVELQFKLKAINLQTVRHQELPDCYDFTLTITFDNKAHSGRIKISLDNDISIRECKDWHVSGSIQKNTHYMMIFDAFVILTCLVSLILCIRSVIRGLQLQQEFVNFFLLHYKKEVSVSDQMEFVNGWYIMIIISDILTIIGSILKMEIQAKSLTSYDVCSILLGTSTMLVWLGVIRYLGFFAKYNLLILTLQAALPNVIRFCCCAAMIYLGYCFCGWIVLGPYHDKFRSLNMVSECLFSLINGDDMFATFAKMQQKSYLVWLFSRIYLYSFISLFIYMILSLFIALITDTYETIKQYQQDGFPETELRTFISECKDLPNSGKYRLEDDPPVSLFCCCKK
As to the kind of experiment: Fluorescent TRPML3 assay (performed as for TRPML1, substituting the TRPML3 subtype). The method, boiled down: (§1)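 HEK-293 Trex cells with doxycycline-induced (0.5 ug/mL) surface-directed human TRPML subtype, loaded with 1 μM Fluo4-AM, resuspended in Ringer's with 10 mM calcium. Compounds at 20 μM to 6 nM final in half-log steps, triplicate; fluorescence ex 480/em 540; EC50 by non-linear regression versus plate controls.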

Another test addresses T2, TRPML2 (Homo sapiens, UniProt Q8IZK6).
T2 construct: expressed in transfected cells
T2 sequence (Q8IZK6 1-566): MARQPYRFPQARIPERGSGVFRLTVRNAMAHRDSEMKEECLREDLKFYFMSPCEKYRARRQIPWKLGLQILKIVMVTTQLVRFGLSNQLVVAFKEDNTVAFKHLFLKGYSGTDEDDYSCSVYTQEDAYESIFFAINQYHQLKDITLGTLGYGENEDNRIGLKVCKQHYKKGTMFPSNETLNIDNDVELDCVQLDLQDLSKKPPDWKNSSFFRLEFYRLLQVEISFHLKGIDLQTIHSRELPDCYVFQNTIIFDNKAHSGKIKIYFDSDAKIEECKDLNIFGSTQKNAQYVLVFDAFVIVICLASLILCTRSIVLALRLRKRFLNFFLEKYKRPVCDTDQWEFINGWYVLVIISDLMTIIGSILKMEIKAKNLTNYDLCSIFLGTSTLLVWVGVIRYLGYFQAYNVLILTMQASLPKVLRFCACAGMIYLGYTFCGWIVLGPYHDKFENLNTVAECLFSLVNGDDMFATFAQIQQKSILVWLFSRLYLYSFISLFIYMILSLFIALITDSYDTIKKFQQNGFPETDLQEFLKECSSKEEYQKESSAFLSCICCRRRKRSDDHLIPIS
As to the kind of experiment: Fluorescent TRPML2 assay (performed as for TRPML1, substituting the TRPML2 subtype). In a few lines: as §1

In the next test the target is TRPML1 (Homo sapiens, UniProt Q9GZU1). As to the kind of experiment: Fluorescent TRPML1 assay (Fluo4-AM calcium fluorescence in doxycycline-induced HEK-293 Trex cells). In a few lines:
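HEK-293 Trex cells stably carrying human TRPML1 (surface-trafficking mutant) were induced overnight with 0.5 ug/mL doxycycline, loaded with 1 micromolar Fluo4-AM, and suspended in Ringer's with 10 mM calcium. Compounds at 20 micromolar to 6 nanomolar final, half-log steps, triplicate; fluorescence 480/540 nm gave percent activity versus controls and EC50 by non-linear regression.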

Broadly, the EC50 is the concentration giving half of the maximal effect.

TRPML1, sequence (Q9GZU1 whole entry L15A/L16A/L577A/L578A, form open): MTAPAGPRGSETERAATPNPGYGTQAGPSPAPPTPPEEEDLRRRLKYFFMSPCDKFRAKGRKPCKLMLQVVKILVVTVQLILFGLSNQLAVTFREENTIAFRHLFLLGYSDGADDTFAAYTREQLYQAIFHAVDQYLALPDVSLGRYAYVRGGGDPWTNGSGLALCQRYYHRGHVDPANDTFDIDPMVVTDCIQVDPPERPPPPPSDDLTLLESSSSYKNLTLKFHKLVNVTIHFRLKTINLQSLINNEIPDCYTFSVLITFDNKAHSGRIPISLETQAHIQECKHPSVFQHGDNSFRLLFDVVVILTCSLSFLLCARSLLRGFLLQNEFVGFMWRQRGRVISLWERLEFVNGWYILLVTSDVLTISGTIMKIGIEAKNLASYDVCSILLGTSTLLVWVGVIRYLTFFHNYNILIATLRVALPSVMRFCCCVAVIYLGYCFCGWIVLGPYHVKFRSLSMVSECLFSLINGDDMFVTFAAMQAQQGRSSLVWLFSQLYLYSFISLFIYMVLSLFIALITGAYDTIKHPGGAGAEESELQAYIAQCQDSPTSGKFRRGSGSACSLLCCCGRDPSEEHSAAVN

As to `Cc1cncc(-n2cc(C3CC3)c3c(N4CCN(C(=O)OC(C)(C)C)C[C@@H]4C)ncnc32)c1` [Compound 150, tert-butyl (S)-4-(5-cyclopropyl-7-(5-methylpyridin-3-yl)-7H-pyrrolo[2,3-d]pyrimidin-4-yl)-3-methylpiperazine-1-carboxylate], the EC50 at TRPML3 was 0.1 to 0.5 µM; on TRPML2, 0.5 to 2 µM; at TRPML1, 0.1 to 0.5 µM.

Turning to `CC(C)(C)OC(=O)N1CCN(c2ncnc3c2c(-c2ccccn2)cn3-c2ccc(F)c(Cl)c2)CC1` [Compound 151, tert-butyl 4-(7-(3-chloro-4-fluorophenyl)-5-(pyridin-2-yl)-7H-pyrrolo[2,3-d]pyrimidin-4-yl)piperazine-1-carboxylate], the EC50 on TRPML3, at TRPML2 and on TRPML1 was 0.1 to 0.5 µM in each case.

With `CCOC(=O)N1CCN(c2ncnc3c2c(-c2ccccn2)cn3-c2ccc(F)c(Cl)c2)CC1` [Compound 152, ethyl 4-(7-(3-chloro-4-fluorophenyl)-5-(pyridin-2-yl)-7H-pyrrolo[2,3-d]pyrimidin-4-yl)piperazine-1-carboxylate], the EC50 at TRPML3 was 0.5 to 2 µM; at TRPML2, > 2 µM; on TRPML1, 0.5 to 2 µM.

For the compound `C[C@H]1CN(C(=O)OC(C)(C)C)CCN1c1ncnc2c1c(-c1ccccn1)cn2-c1ccc(F)c(Cl)c1` [Compound 154, tert-butyl (S)-4-(7-(3-chloro-4-fluorophenyl)-5-(pyridin-2-yl)-7H-pyrrolo[2,3-d]pyrimidin-4-yl)-3-methylpiperazine-1-carboxylate], the EC50 at TRPML3, at TRPML2 and at TRPML1 was < 0.1 µM each time.

With `CCOC(=O)N1CCN(c2ncnc3c2c(-c2ccccn2)cn3-c2ccc(F)c(Cl)c2)[C@@H](C)C1` [Compound 155, ethyl (S)-4-(7-(3-chloro-4-fluorophenyl)-5-(pyridin-2-yl)-7H-pyrrolo[2,3-d]pyrimidin-4-yl)-3-methylpiperazine-1-carboxylate], the EC50 on TRPML3 is 0.1 to 0.5 µM; on TRPML2, 0.5 to 2 µM; on TRPML1, 0.1 to 0.5 µM.

As for `CC(C)(C)OC(=O)N1CCN(c2nccc3c2c(C2CC2)cn3-c2ccc(Cl)cc2)CC1` [Compound 156, tert-butyl 4-(1-(4-chlorophenyl)-3-cyclopropyl-1H-pyrrolo[3,2-c]pyridin-4-yl)piperazine-1-carboxylate], the EC50 at TRPML3 was < 0.1 µM; on TRPML2 it was 0.1 to 0.5 µM; on TRPML1, 0.1 to 0.5 µM.

Regarding `C[C@@H]1CN(C(=O)OC(C)(C)C)CCN1c1ncnc2c1c(C1CCCC1)cn2-c1cccc(Cl)c1` [Compound 157, tert-butyl (R)-4-(7-(3-chlorophenyl)-5-cyclopentyl-7H-pyrrolo[2,3-d]pyrimidin-4-yl)-3-methylpiperazine-1-carboxylate], the values for the EC50 at TRPML3, on TRPML2 and on TRPML1 were < 0.1 µM, 0.1 to 0.5 µM and 0.1 to 0.5 µM, respectively.

Take `C[C@H]1CN(C(=O)OC(C)(C)C)CCN1c1ncnc2c1c(C1CCCC1)cn2-c1cccc(Cl)c1` [Compound 158, tert-Butyl (S)-4-(7-(3-chlorophenyl)-5-cyclopentyl-7H-pyrrolo[2,3-d]pyrimidin-4-yl)-3-methylpiperazine-1-carboxylate]: the EC50 at TRPML3, at TRPML2 and at TRPML1 was < 0.1 µM throughout.

Take `Cc1ccc(Cl)cc1-n1cc(-c2ccccn2)c2c(N3CCN(C(=O)OC(C)(C)C)CC3C)ncnc21` (stereo not drawn) [Compound 159, tert-butyl 4-(7-(5-chloro-2-methylphenyl)-5-(pyridin-2-yl)-7H-pyrrolo[2,3-d]pyrimidin-4-yl)-3-methylpiperazine-1-carboxylate]: the EC50 at TRPML3, on TRPML2 and at TRPML1 was 0.1 to 0.5 µM throughout.

For the compound `Cc1c(Cl)cccc1-n1cc(-c2ccccn2)c2c(N3CCN(C(=O)OC(C)(C)C)CC3C)ncnc21` (stereo not drawn) [Compound 160, tert-butyl 4-(7-(3-chloro-2-methylphenyl)-5-(pyridin-2-yl)-7H-pyrrolo[2,3-d]pyrimidin-4-yl)-3-methylpiperazine-1-carboxylate], the EC50 on TRPML3 was < 0.1 µM; on TRPML2 it was 0.1 to 0.5 µM; at TRPML1 it was 0.1 to 0.5 µM.

`Cc1nccnc1-c1cn(-c2cccc(Cl)c2)c2ncnc(N3CCN(C(=O)OC(C)(C)C)CC3C)c12` (stereo not drawn) [Compound 161, tert-butyl 4-(7-(3-chlorophenyl)-5-(3-methylpyrazin-2-yl)-7H-pyrrolo[2,3-d]pyrimidin-4-yl)-3-methylpiperazine-1-carboxylate]: the EC50 at TRPML3 is 0.1 to 0.5 µM; at TRPML2, 0.5 to 2 µM; at TRPML1 it was 0.1 to 0.5 µM.

As for `Cc1c(Cl)cccc1-n1cc(-c2cnccn2)c2c(N3CCN(C(=O)OC(C)(C)C)CC3C)ncnc21` (stereo not drawn) [Compound 162, tert-butyl 4-(7-(3-chloro-2-methylphenyl)-5-(pyrazin-2-yl)-7H-pyrrolo[2,3-d]pyrimidin-4-yl)-3-methylpiperazine-1-carboxylate], the figures for the EC50 at TRPML3, on TRPML2 and on TRPML1 were 0.1 to 0.5 µM, 0.5 to 2 µM and 0.5 to 2 µM, respectively.

In the case of `Cc1ccc(Cl)cc1-n1cc(-c2cnccn2)c2c(N3CCN(C(=O)OC(C)(C)C)CC3C)ncnc21` (stereo not drawn) [Compound 163, tert-butyl 4-(7-(5-chloro-2-methylphenyl)-5-(pyrazin-2-yl)-7H-pyrrolo[2,3-d]pyrimidin-4-yl)-3-methylpiperazine-1-carboxylate], the EC50 on TRPML3 was 0.1 to 0.5 µM; at TRPML2 it was 0.5 to 2 µM; at TRPML1, 0.5 to 2 µM.

Regarding `CC1CN(C(=O)OC(C)(C)C)CCN1c1ncnc2c1c(C1CC1)cn2-c1cncc(Cl)c1` (stereo not drawn) [Compound 164, tert-butyl 4-(7-(5-chloropyridin-3-yl)-5-cyclopropyl-7H-pyrrolo[2,3-d]pyrimidin-4-yl)-3-methylpiperazine-1-carboxylate], the EC50 was < 0.1 µM at TRPML3, 0.1 to 0.5 µM on TRPML2 and < 0.1 µM on TRPML1.

As for `Cc1cncc(-n2cc(C3CC3)c3c(N4C[C@@H](C)N(C(=O)OC(C)(C)C)C[C@@H]4C)ncnc32)c1` [Compound 165, tert-butyl (2R,5S)-4-(5-cyclopropyl-7-(5-methylpyridin-3-yl)-7H-pyrrolo[2,3-d]pyrimidin-4-yl)-2,5-dimethylpiperazine-1-carboxylate], the EC50 lay in the range of 0.1 to 0.5 µM on TRPML3, 0.5 to 2 µM at TRPML2 and 0.1 to 0.5 µM at TRPML1.

As to `CCc1cncc(-n2cc(C3CC3)c3c(N4CCN(C(=O)OC(C)(C)C)CC4)ncnc32)c1` [Compound 166, tert-butyl 4-(5-cyclopropyl-7-(5-ethylpyridin-3-yl)-7H-pyrrolo[2,3-d]pyrimidin-4-yl)piperazine-1-carboxylate], the EC50 was in the range of 0.1 to 0.5 µM on TRPML3, 0.5 to 2 µM at TRPML2 and 0.1 to 0.5 µM on TRPML1.

`C[C@@H]1CN(c2ncnc3c2c(C2CC2)cn3-c2cncc(C(F)(F)F)c2)[C@@H](C)CN1C(=O)OC(C)(C)C` [Compound 167, tert-butyl (2R,5S)-4-(5-cyclopropyl-7-(5-(trifluoromethyl)pyridin-3-yl)-7H-pyrrolo[2,3-d]pyrimidin-4-yl)-2,5-dimethylpiperazine-1-carboxylate]: the half-maximal effective concentration (EC50) on TRPML3 was < 0.1 µM; at TRPML2, 0.5 to 2 µM; on TRPML1, 0.1 to 0.5 µM.

In the case of `C[C@@H]1CN(c2ncnc3c2c(C2CC2)cn3-c2cccnc2)[C@@H](C)CN1C(=O)OC(C)(C)C` [Compound 168, tert-butyl (2R,5S)-4-(5-cyclopropyl-7-(pyridin-3-yl)-7H-pyrrolo[2,3-d]pyrimidin-4-yl)-2,5-dimethylpiperazine-1-carboxylate], the EC50 at TRPML3 is 0.5 to 2 µM; at TRPML2, > 2 µM; at TRPML1 it was 0.5 to 2 µM.

The record behind these values is patent publication US20250136606A1, “MODULATORS OF TRPML, THEIR COMPOSITIONS AND METHODS OF USE” (Caraway Therapeutics, Inc., priority 2021, published 2025).
